As a reminder, the Kd is the concentration at which binding is half-saturated. Read a high Kd as a looser complex.

We go through four molecules from publication PMC11811597, “Phenomics‐Based Discovery of Novel Orthosteric Choline Kinase Inhibitors” (Angewandte Chemie (International Ed. in English), 2025).

Assay [1] has as its target T1, CHKA (Homo sapiens, UniProt P35790). The experiment in a line: Isothermal calorimetry (ITC). It is filed as binding. Also on record: host or cells: E. coli BL21(DE3). The procedure: mM NaCl, 5% glycerol, 500 mM imidazole, 0.5% TCEP, pH 7.5), the eluent was concentrated, and further purified by size exclusion chromatography using a HiLoad 16/600 Superdex S200 column (Cytiva) pre-equilibrated in Buffer C (20 mM HEPES, 150 mM NaCl, pH 7.5). The resulting protein purity was assessed by SDS-PAGE, and protein identity was confirmed by tryptic digest analysis. Protein concentration was determined to be 35.5 mg/mL, and was calculated using a theoretical molar extinction coefficient of 58830 M-1cm-1 as determined by ProtParam.[5]
Isothermal Calorimetry (ITC)
ITC experiments were performed in a buffer containing 20 mM HEPES pH 7.5 and 200 mM NaCl, using an VP-ITC microcalorimeter (MicroCal) at 15 °C. The protein concentration was 200 µM and compounds were tested at 20 µM. The titrations were conducted using an initial injection of 4 μL followed by further 29 injections of 8 μL each. Thermodynamic parameters were calculated using ΔG = ΔH − TΔS = −RT ln KB, where ΔG, ΔH, and ΔS are the changes in free energy, enthalpy, and entropy of binding, respectively. Single binding models were employed to fit the data. […]

The target of assay [2] is T1, CHKA. The experiment in a line: Differential scanning fluorimetry (DSF). The settings on record: 10 µM compound, 2 µM CHKA. Also on record: host or cells: E. coli BL21(DE3). It is filed as binding. How it is done:
mM NaCl, 5% glycerol, 500 mM imidazole, 0.5% TCEP, pH 7.5), the eluent was concentrated, and further purified by size exclusion chromatography using a HiLoad 16/600 Superdex S200 column (Cytiva) pre-equilibrated in Buffer C (20 mM HEPES, 150 mM NaCl, pH 7.5). The resulting protein purity was assessed by SDS-PAGE, and protein identity was confirmed by tryptic digest analysis. Protein concentration was determined to be 35.5 mg/mL, and was calculated using a theoretical molar extinction coefficient of 58830 M-1cm-1 as determined by ProtParam.[5] […]
Differential Scanning Fluorimetry (DSF)
DSF buffer (20 mM HEPES, 150 mM NaCl, 0.5 mM TCEP, pH 7.5) containing 5x SYPRO Orange (Thermo Fisher Scientific) and CHKA (2 µM) was incubated with 10 µM compound at 2% DMSO final concentration in a 96-well semi-skirted real time PCR plate. Fluorescence was measured in each well over a 40-80 °C gradient using a Stratagen MX3005p qPCR instrument (Agilent Technologies). […]

Assay [3] relates to primary human cell‐based tissue and disease models. The assay can be described thus: BioMAP Diversity PLUS panel. The settings on record: 12 systems, Pearson's correlation >0.7. The text has this: Having confirmed that UNC0638 and UNC0737 are potent bona fide CHKA inhibitors, we next turned our attention to further investigate the role of CHKA in cellular signalling. While CHKA has been studied extensively in the context of malignant disease, there has been a growing acknowledgment of its relevance in immune metabolism.[9, 10] […] We profiled UNC0638 and UNC0737 alongside the orthogonal CHKA inhibitors V‐11‐0711 and ARIAD against the BioMAP Diversity PLUS panel (Figures S7).[24] This set comprises 148 distinct biomarkers across 12 systems, including panels for systemic immune responses. […] The decrease in IgG secretion was accompanied by a reduction in stimulation‐induced B cell maturation into CD27^+IgD^− memory CD19^+ B cells (Figure 4D). […]
consecutive concentrations change in the same direction relative to vehicle controls, are outside of the significance envelope, and have at least one concentration with an effect size > 20% (|log10ratio| > 0.1). Biomarker key activities are described as modulated if these activities increase in some systems, but decrease in others. Cytotoxicity is indicated on the profile plot by a thin black arrow above the x- […]
Cytotoxicity and antiproliferative arrows only require one concentration to meet the indicated threshold for profile annotation. […]

The test system of assay [4] is MCF7, MDA‐MB‐231, HEK293, HepG2, U2OS and K562 cells. The assay can be described thus: 72 h cell viability assay (Cell Titer-Glo). The settings on record: 0-50 μM. Type of assay: cell-based, human. The source says: We compared morphological fingerprints of multiple parameters to assess overall biological similarity (Biol. Sim.) (Figure 1B).
A-366 and UNC0638 were purchased from Tocris. ARIAD and V-11-07-11 were purchased from Wuxi Apptec. UNC0737 and UNC0965 were synthesised as previously described.[1] Hemicholinium-3 and pyruvate kinase/lactic dehydrogenase enzymes were purchased from Sigma Aldrich. Aqueous and organic solvents were MS-grade and acquired by Sigma Aldrich unless stated otherwise.
MDA-MB-231, MCF7 and HEK293 cells were cultured in DMEM (Gibco, #11965092) supplemented with 10% FBS. K562 were cultured in IMDM (Gibco, #12440053) supplemented with 10% FBS. HepG2 were cultured in MEM (Gibco, #11095080) supplemented with 10 % FBS. […]
cultured in McCoy’s 5A (Sigma, M8403) supplemented with 10 % FBS and 1x GlutaMAX (Gibco, #35050061). Cells were maintained at 37 °C in a humidified 5% CO2 atmosphere. Peripheral blood mononuclear cells (PBMC) were isolated from healthy blood donors by density centrifugation.
MDA-MB-231, MCF7 or HEK293 cells (7.5 × 10^4 cells/mL) were each plated into x1 white 384-well polystyrene plate (Greiner Bio-One Ltd). A-366, […] and UNC0737 were directly added to each well of the cell line plates, at final concentrations 0-50 μM and incubated for 72 h at 37 °C/ 5% CO2.
Cell Titer-Glo® reagent was added to each well and total luminescence readings were performed within 15 min using the PHERAstar FSX (BMG Labtech). The cell viability results were normalised to the DMSO control and plotted using the sigmoidal dose-response (variable slope) equation in […]
Chemical Proteomics Drug Pulldown
For lysate generation MCF7 cells were grown until approximately 80% confluency before being pelleted and washed with PBS. […]
MDA-MB-231, […], HepG2, U2OS and K562 cells following treatment with A-366, UNC0638 and UNC0737 after 72 h measured by Cell Titer Glo assay (n=3). […]
For orientation: Cellular ATP, detected with luciferase, serves as a proxy for viable cell number.

T1 sequence (P35790 75-457 limits assumed): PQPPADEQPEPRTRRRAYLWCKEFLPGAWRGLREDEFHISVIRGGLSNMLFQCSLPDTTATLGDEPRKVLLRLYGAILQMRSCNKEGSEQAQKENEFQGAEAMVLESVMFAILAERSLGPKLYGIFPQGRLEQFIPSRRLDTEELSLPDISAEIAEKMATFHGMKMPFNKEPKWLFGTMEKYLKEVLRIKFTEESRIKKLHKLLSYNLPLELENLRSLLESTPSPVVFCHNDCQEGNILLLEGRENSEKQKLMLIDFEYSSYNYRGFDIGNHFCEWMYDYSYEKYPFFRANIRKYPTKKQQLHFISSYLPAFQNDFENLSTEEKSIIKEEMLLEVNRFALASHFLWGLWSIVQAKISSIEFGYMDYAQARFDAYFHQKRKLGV

Take `C[N+]1(C)CCOC(O)(c2ccc(-c3ccc(C4(O)C[N+](C)(C)CCO4)cc3)cc2)C1` (stereo not drawn) [HC3, hemicholinium‐3]: binding in assay [1] was characterised by a dissociation constant (Kd) of 40.6 nM.

As for `COc1cc2nc(N3CCCN(C)CC3)nc(NC3CCN(Cc4ccccc4)CC3)c2cc1OC` [BIX‐01294], the “thermal stabilisation of CHKA (DSF)” value in assay [2] was “exhibited CHKA stabilisation albeit to lesser degree than UNC0737”.

Take `COc1cc2c(NC3CCN(C(C)C)CC3)nc(N3CCC(F)(F)CC3)nc2cc1OCCCN1CCCC1` [UNC0642]: the “thermal stabilisation of CHKA (DSF)” value in assay [2] was “exhibited CHKA stabilisation albeit to lesser degree than UNC0737”.

Consider `COc1cc2c(cc1OCCCN1CCCC1)N=C(N)C21CCC1` [A‐366], for which the “clustering of overall BioMAP responses across all biomarkers” value in assay [3] is “did not exhibit any overlap”. For the same molecule, the “thermal stabilisation of CHKA (DSF)” value in assay [2] is reported as “not”. In addition, the “effect on cell viability” value in assay [4] was “less efficient in inducing cancer cell death”.
